Laboratory results from patent US20260345729A1, “TISSUE DIFFERENTIATION FACTOR RELATED POLYPEPTIDES (TDFRPS) FOR THE TREATMENT OF MYOCARDIAL INJURY” (Therapeutics By Design, LLC, priority 2022, published 2026).
Values joined by “and” are separate entries in the source; they are usually repeats but may differ in a detail not shown here. Equal entries are not always repeated. “Also recorded” adds a separate entry of the source.

Columns and labels:
[1] = tested on: phosphorylation of AKT, cardiomyocytes; assay: Phosphorylated AKT in doxorubicin-treated cardiomyocytes; format: cell-based, rat; settings: FIG. 2
Text: (§1) The examples described herein valuated the effect of TDFRP's on the physiology of cardiomyocytes in vitro. Phosphorylation of cellular AKT at Ser473 is known to promote cardiomyocyte survival, function, and contractility. Cellular enzyme Caspase-3 is responsible for apoptosis via both apoptosis pathways. Chemotherapeutic agent doxorubicin […] used to treat a diverse number of cancers, but one significant side effect is decreased heart function. In cardiomyocytes, doxorubicin hinders the phosphorylation of AKT and stimulates Caspase-3. Lipopolysaccharides (LPS) are endotoxins that promote inflammation and apoptosis in cardiomyocytes.
(§2) Neonatal rat cardiomyocytes (CM) were pre-treated with 0.33 μM doxorubicin for 24 h, followed by treatment with BMP-7 (143 nM) or THR-123 (SEQ ID NO: 1) at 100 and 500 μM for 60 h.

[2] = tested on: Caspase-3, cardiomyocytes; assay: Doxorubicin-induced Caspase-3 activity in cardiomyocytes; format: cell-based, rat; settings: for caspase-3 activity (effect of doxorubicin itself): 333 μM (legend) / 0.33 μM (example) doxorubicin, cardiomyocytes, FIG. 3; for doxorubicin induced Caspase-3 activity: doxorubicin 0.33 μM 24 h (FIG. 3 legend: 333 μM), then BMP-7 143 nM or THR-123 100 and 500 μM for 60 h, p<0.05
Procedure: as §2
Neonatal rat cardiomyocytes (CM) were pre-treated with 0.33 μM doxorubicin for 24 h, followed by treatment with BMP-7 (143 nM) or SEQ ID No. 1 at 100 and 500 μM for 60 h. […] Caspase-3 activation is a step common to both apoptotic pathways and leads to apoptosis.

[3] = tested on: Akt phosphorylation at Serine 473, neonatal rat cardiomyocytes; assay: Akt phosphorylation (Ser473) in cardiomyocytes starved by serum withdrawal (ischemic injury); format: cell-based; settings: serum/growth supplement withdrawal; THR-123 100 μM, 60 h; p<0.01; FIG. 1
Text: Phosphorylated Akt is a marker of apoptosis. Ischemic injury leads to apoptosis.
as §1
Primary neonatal rat cardiomyocytes (Cell Applications) were cultured in medium with 10% growth supplement (Cell Applications) for 24 hours at 37 °C, 5% CO2. Cells were then starved of growth supplement for 12 hours to create ischemic injury. Controls received medium alone. Cells were incubated with culture medium alone, BMP-7 (143 nM) or SEQ ID No. 1 (100 μM) for 60 h. In FIG. 1, Akt phosphorylation at Serine 473 (Cell Signaling Technology) is depressed due to media starvation and was not affected by the addition of PBS.

[4] = tested on: Caspase-3, cardiomyocytes; assay: LPS-induced Caspase-3 in cardiomyocytes; format: cell-based, human; settings: 100 ng/ml LPS; BMP-7 143 nM; THR-123 4, 20, 100, 500 μM (legend: 20 μM or higher); FIG. 4
IL-6, cardiomyocytes = assay: LPS-induced IL-6 release in cardiomyocytes; format: cell-based, human; settings: 100 ng/ml LPS; BMP-7 143 nM; THR-123 4, 20, 100, 500 μM; FIG. 5
[5] = tested on: myocardial ischemia in the rat after ligation of the left anterior descending artery; assay: Rat LAD ligation model: histomorphometric necrotic volume / volume at risk (ischemia/reperfusion injury); format: in vivo; settings: i.v. 2 hr prior and 24, 72, 120 hr post ligation, 20 min ischemia, 7 days reperfusion, BMP-7 160 μg/kg (p=0.08), THR-123 10 mg/kg (p=0.007), FIG. 8
Procedure: For each slice of a heart, the area of the necrotic area and the area of the whole area at risk (not stained blue) are measured. The areas are summed over all slices to obtain an estimate of the necrotic volume (NV) and the volume at risk (VR). The ratio of NV/VR is a measure of the myocardial injury resulting from the period of ischemia and subsequent reperfusion injury.
The efficacy of BMP mimetic THR-123 in ameliorating the effects of myocardial ischemia was investigated in the rat after ligation of the coronary artery. The rat LAD model is used for studying the effect of treatments for ameliorating the effect of a heart attack (coronary infarct). The Left Anterior Descending artery (LAD) supplies blood to the left ventricle. Blocking blood flow through the LAD creates ischemia in a region of the left ventricle muscle (region at risk). […]
Twenty-four unmanipulated rats, sorted into three large groups by initial body weight (>300 g pre-surgery) were evaluated. […]
The effect of the LAD ligation was measured via histomorphometric analysis of heart slices where the necrotic areas (yellow) and the areas impacted by the LAD ligation (area at risk, i.e., not stained blue) were measured for each slice and summed over all slices to obtain a measure of the infarct volume and the volume at risk (FIG. 7). […]

[6] = tested on: paracardial inflammation in rat hearts after LAD ligation; assay: Paracardial inflammation / pericarditis inflammation level in rat LAD ligation model; format: in vivo; settings: i.v.; BMP-7 160 μg/kg; THR-123 10 mg/kg; day 7 post ligation; FIG. 9
Procedure: Myocardial ischemia was created by ligating the left anterior descending artery (LAD), which supplies blood to the left ventricle of the heart. In the LAD infarct model the chest and the pericardium are opened to expose the LAD. A suture is placed around the LAD and loops are added to the two ends, then the suture is tightened with an over hand knot (ligation). The ligation blockage to the LAD was maintained for 20 min to simulate a coronary infarct, then released using the two loops.
The animals were divided into three groups that were dosed with PBS, BMP-7, or THR-123 (SEQ ID NO: 1). Administrations were at 2 hr prior to ligation and at 24, 72 and 120 hr post ligation.
Twenty-four unmanipulated rats, sorted into three large groups by initial body weight (>300 g pre-surgery) were evaluated. Animals underwent surgery and were sorted into 3 treatment groups: Group 1: Vehicle (neg. control), PBS, equal volume i.v; Group 2: BMP-7, 160 μg/kg i.v.<5 ml/kg; Group 3: THR-123 (SEQ ID NO: 1), 10 mg/kg i.v.<5 ml/kg. The LAD was ligated to create a 20 min period of ischemia, then released for seven days during which reperfusion injury occurs (IR injury).
The predominance of the hearts from the PBS treated group had more severe inflammation than hearts from the BMP-7 treated and the THR-123 (SEQ ID NO: 1) treated groups (FIG. 9).

caspase-3 activity (effect of doxorubicin itself) [2]	caspase-3 activity (effect of doxorubicin itself) ([2]; listed as Doxorubicin)	Molecule	phosphorylation of AKT (effect of doxorubicin itself) ([1]; 333 nM doxorubicin, serum starved cardiomyocytes)	Akt Ser473 phosphorylation [3]	Akt phosphorylation compared to doxorubicin alone ([1]; 0.33 μM (333 nM) doxorubicin 24 h, then THR-123 at 100 and 500 μM for 60 h, p<0.01)	doxorubicin induced Caspase-3 activity [2]	LPS induced Caspase-3 [4]	LPS induced IL-6 (IL-6, cardiomyocytes)	reduction in myocardial injury / IR damage relative to PBS (necrotic volume / volume at risk) ([5]; 10 mg/kg)	paracardial inflammation relative to PBS [6]	reduction in myocardial injury / IR damage relative to PBS (necrotic volume / volume at risk) [5] [%]
stimulated caspase-3 activity	Stimulated Caspase-3	COc1cccc2c1C(=O)c1c(O)c3c(c(O)c1C2=O)C[C@@](O)(C(=O)CO)C[C@@H]3O[C@H]1C[C@H](N)[C@H](O)[C@H](C)O1 [doxorubicin, reference compound]	further reduces phosphorylation of AKT								
		THR-123: TDFRP peptide, BMP mimetic: (H) CYFDDSSNVLCKKYRS (OH)		significantly increased Akt Ser473 phosphorylation; also recorded: reversed the effects of ischemia on AKT phosphorylation	significantly increased cellular Akt phosphorylation; also recorded: reversed the inhibition of AKT phosphorylation in a dose dependent manner	inhibited doxorubicin induced Caspase-3 activity in a dose dependent manner; also recorded: significantly inhibited doxorubicin induced Caspase-3 activity; also recorded: completely reversed the apoptotic effects of doxorubicin	reduced the level of LPS induced Caspase-3 in a concentration dependent manner; also recorded: reversed caspase-3 activity to an even greater extent	reduces the level of LPS induced IL-6 in a concentration dependent manner; also recorded: reduced the level of IL-6 release as did THR-123 in a dose dependent manner	85% and 84%	reduced paracardial inflammation relative to PBS	
		BMP-7: bone morphogenetic proteins (BMPs) (protein, UniProt P18075 293-431, looked up) Bone morphogenetic protein 7: STGSKQRSQNRSKTPKNQEALRMANVAENSSSDQRQACKKHELYVSFRDLGWQDWIIAPEGYAAYYCEGECAFPLNSYMNATNHAIVQTLVHFINPETVPKPCCAPTQLNAISVLYFDDSSNVILKKYRNMVVRACGCH				significantly inhibited doxorubicin induced Caspase-3 activity; also recorded: completely reversed the apoptotic effects of doxorubicin	reduced the level of LPS induced Caspase-3 in a concentration dependent manner; also recorded: somewhat reversed the effect of LPS	reduces the level of LPS induced IL-6 in a concentration dependent manner; also recorded: reduced the level of IL-6 release		reduced paracardial inflammation relative to PBS	51
